{"source": "patent US8597646B2", "about": "“Methods and compositons featuring TGF-beta antagonists for the treatment of marfan syndrome and associated disorders” (The Johns Hopkins University, priority 2005, dated 2013)", "type_in_all_cases": "in vivo, mouse", "key": {"[1]": {"test_system": "Fbn1C1039G/+ mice", "assay": "Steady-state skeletal muscle architecture and fiber cross sectional area in Fbn1C1039G/+ mice", "details": "for Steady-state muscle architecture, in words: fibrillin-1 deficient mice, monopotassium salt", "experimental": "Wild-type and Fbn1^C1039G/+ mice received intraperitoneal injections of TGFβ-neutralizing antibody (R&D Systems, once every two weeks) starting at 7 weeks of age. The antibody was diluted in PBS (pH 7.4) and administered at a dose of 1 mg/kg or 10 mg/kg body weight. Rabbit IgG (10 mg/kg; Zymed Laboratories Inc.) was administered in a similar fashion as a negative control. Mice were sacrificed after 2 months of treatment and a minimum of 6 mice per genotype were used for histologic and morphometric analyses.\nMice were continued on oral therapy for 6 months and sacrificed. […] Age-matched wild-type and mdx mice (placebo-treated) served as a control group. After 6 months of treatment, forelimb and hindlimb grip strength was assessed using an automated grip strength meter (Columbus Instruments, Columbus, Ohio). The experiments for forelimb and hindlimb grip strength testing were conducted at different days allowing for a minimum recovery period of 10 days. Total peak force (in Newtons) was determined by an electronic strain gauge as previously described and corrected for body weight (Wagner, K. R., et al. (2002) Ann Neurol 52, 832-6). Five measurements within 2 minutes were taken from each animal. […] The degree of fatigue was calculated by comparing the first two pulls to the last two pulls with the decrement between pulls 1+2 and pulls 4+5 providing a measure of fatigue. […]\nFor morphometric analyses, skeletal muscle was flash frozen in cooled isopentane and mounted in Tragacanth (Sigma Aldrich, USA). […] Muscle fibers were counted in a defined area (9 mm^2) of the tibialis anterior muscle of 10-day-old wild-type (n=3) and Fbn1C1039G/C1039G mice (n=6) and fiber diameter was determined by measuring the shortest fiber axis within cross-sections of the tibialis anterior muscle, counting a total of 850-1500 fibers. The cross sectional area of undamaged and regenerating myofibers of the tibialis anterior muscle from wild-type and Fbn1^C1039G/+ mice was expressed as a distribution of the percentage of the total number of myofibers analyzed (850-1500) (Horsley, V. et al (2003) Cell 113, 483-94). […]"}, "[2]": {"test_system": "mdx mice", "assay": "Forelimb and hindlimb grip strength and fatigue in mdx mice", "experimental": "Mice were continued on oral therapy for 6 months and sacrificed. […] Age-matched wild-type and mdx mice (placebo-treated) served as a control group. After 6 months of treatment, forelimb and hindlimb grip strength was assessed using an automated grip strength meter (Columbus Instruments, Columbus, Ohio). The experiments for forelimb and hindlimb grip strength testing were conducted at different days allowing for a minimum recovery period of 10 days. Total peak force (in Newtons) was determined by an electronic strain gauge as previously described and corrected for body weight (Wagner, K. R., et al. (2002) Ann Neurol 52, 832-6). Five measurements within 2 minutes were taken from each animal. The three highest measurements for each animal were averaged to give the strength score. The degree of fatigue was calculated by comparing the first two pulls to the last two pulls with the decrement between pulls 1+2 and pulls 4+5 providing a measure of fatigue. Similarly, functional measurements were performed in 6 month old fibrillin-1 deficient mice (Fbn1^mgR) (Pereira, L. et al. (1997) Nat Genet. 17, 218-22) after 5 months of treatment."}, "[3]": {"test_system": "C1039G/+ mice", "assay": "Aortic wall histology (elastic matrix architecture) in treated C1039G/+ mice", "details": "4 months of treatment"}}, "note": "Entries after “also recorded” stand apart in the source; their conditions may differ.", "data": [{"smiles": "CCCCc1nc(Cl)c(CO)n1Cc1ccc(-c2ccccc2-c2nnn[nH]2)cc1.[K]", "note": "[losartan, 2-butyl-4-chloro-1-[p-(o-1H-tetrazol-5-ylphenyl)benzyl]imidazole-5-methanol monopotassium salt]", "values": [{"measurement": "Steady-state muscle architecture, in words", "setting": "[1]; listed as Losartan", "result": "rescued; also recorded: normalized"}, {"measurement": "Steady-state muscle architecture, in words", "setting": "[1]", "result": "fully normalized"}, {"measurement": "Mean fiber size (muscle fiber cross sectional area)", "setting": "[1]; steady state, postnatal losartan, untreated 1746±39, wild-type 2741±69", "result": "2527±58", "unit": "μm^2"}, {"measurement": "Forelimb grip strength (peak force), male", "setting": "[2]; 6 months of losartan, untreated mdx 1.25±0.15", "result": "1.64±0.29", "unit": "N"}, {"measurement": "Forelimb grip strength (peak force), female", "setting": "[2]; 6 months of losartan, untreated mdx 1.32±0.12", "result": "1.41±0.15", "unit": "N"}, {"measurement": "Hindlimb grip strength (peak force), female", "setting": "[2]; 6 months of losartan, untreated mdx 1.39±0.14", "result": "1.79±0.14", "unit": "N"}, {"measurement": "Hindlimb grip strength (peak force), male", "setting": "[2]; 6 months of losartan, untreated mdx 1.45±0.19", "result": "1.89±0.23", "unit": "N"}, {"measurement": "Muscle fatigue, forelimb test, female", "setting": "[2]; 6 months of losartan, untreated mdx 34.7±5.7", "result": "15.2±6", "unit": "%"}, {"measurement": "Muscle fatigue, forelimb test, male", "setting": "[2]; 6 months of losartan, untreated mdx 36.3±6.5", "result": "16.3±5", "unit": "%"}, {"measurement": "Muscle fatigue, hindlimb test, female", "setting": "[2]; 6 months of losartan, untreated mdx 37.6±6", "result": "17.1±4", "unit": "%"}, {"measurement": "Muscle fatigue, hindlimb test, male", "setting": "[2]; 6 months of losartan, untreated mdx 39.5±6", "result": "16.2%±5"}, {"measurement": "Muscle fatigue in response to repetitive challenge, in words", "setting": "[2]; 6 months of treatment", "result": "significantly less muscle fatigue"}, {"measurement": "Grip strength versus untreated mdx mice, in words", "setting": "[2]; 6 months of treatment, male and female", "result": "increased forelimb and hindlimb grip strength"}, {"measurement": "Elastic matrix architecture / histologic parameters of the aorta", "setting": "[3]", "result": "normalized"}]}]}
